By melting point is commonly meant the temperature of the solid-liquid transition. The molecule `N#Cc1cnc(NC(=O)CCC(=O)O)cn1` [Compound A1, 4-[(5-cyanopyrazin-2-yl)amino]-4-oxo-butanoic acid] had a melting point of 201 to 202 °C.

Values taken from US9241489B2, “Plant growth regulating compounds” (Syngenta Participations AG, priority 2011, dated 2016).
